Key:
Format in all cases: in vivo
[1] = test system: transplanted Oryza sativa; test: Test Example 1: effect on crop, application before weed generation in submerged conditions; conditions: Application herbicide amount 320 g/ha; Seventeenth Table
Procedure, shortened: (§1)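 Water-diluted emulsion formulation is applied onto flood water (4 cm deep) covering alluvial soil on the day weed seeds are sown, after transplanting 2.5 leaf stage rice. Rates are expressed per hectare. Injury or control is graded 0–5 three weeks later.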

Leptochloa chinensis = test: Test Example 3: herbicidal effect by application to foliage (Wagner pot, water depth 0.1-0.5 cm); conditions: Nineteenth Table; application to foliage; application herbicide amount 320 g/ha
Procedure, shortened: (§2)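 Plants are raised 14 days from seed in flooded-surface Wagner pots at 25–30 °C, sprayed on stems and leaves with diluted emulsion at a predetermined rate, and rated three weeks on using a 0–5 herbicidal-ratio scale (5 ≥90%).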

Cyperus difformis = test: as above; conditions: Nineteenth Table; application to foliage; application herbicide amount 320 g/ha
Procedure, shortened: as §2

[2] = test system: Echinochloa crus-galli var. crus-galli; test: as above; conditions: Nineteenth Table; application to foliage; application herbicide amount 320 g/ha
Procedure, shortened: as §2

[3] = test system: directly sowed Oryza sativa; test: Test Example 3: effect on crop by application to foliage (Wagner pot, water depth 0.1-0.5 cm); conditions: Nineteenth Table; application to foliage; application herbicide amount 320 g/ha
Procedure, shortened: as §2

[4] = test system: Echinochloa oryzacola Vasing.; test: Test Example 1: herbicidal activity, application before weed generation in submerged conditions; conditions: Application herbicide amount 320 g/ha; Seventeenth Table
Procedure, shortened: as §1

Scirpus juncoides = test: as above; conditions: Application herbicide amount 320 g/ha; Seventeenth Table
Procedure, shortened: as §1

Monochoria vaginalis = test: as above; conditions: Application herbicide amount 320 g/ha; Seventeenth Table
Procedure, shortened: as §1

SMILES	a: transplanted Oryza sativa (effect on crop grade) [1]	D (herbicidal effect grade) (Leptochloa chinensis)	E (herbicidal effect grade) (Cyperus difformis)	H (herbicidal effect grade) [2]	b (effect on crop grade) [3]	A: Echinochloa oryzicola Vasing. (herbicidal effect grade) [4]	B: Scirpus juncoides (herbicidal effect grade) (Scirpus juncoides)	C: Monochoria vaginalis (herbicidal effect grade) (Monochoria vaginalis)
Cc1nnc(NC(=O)c2ccc(C(F)(F)F)n3c(-c4cc(Cl)cc(Cl)c4)nnc23)o1 [1-071]	0 (Herbicidal ratio of 5% or less (almost no effect))	3 (Herbicidal ratio of 40% or more and less than 70%)	5 (Herbicidal ratio of 90% or more (almost completely withered))	0 (Herbicidal ratio of 5% or less (almost no effect))	0 (Herbicidal ratio of 5% or less (almost no effect))	4 (Herbicidal ratio of 70% or more and less than 90%)	5 (Herbicidal ratio of 90% or more (almost completely withered))	4 (Herbicidal ratio of 70% or more and less than 90%)
Cc1nnc(NC(=O)c2ccc(C(F)(F)F)n3c(C=O)nnc23)o1 [1-068]	0 (Herbicidal ratio of 5% or less (almost no effect))	5 (Herbicidal ratio of 90% or more (almost completely withered))	5 (Herbicidal ratio of 90% or more (almost completely withered))	5 (Herbicidal ratio of 90% or more (almost completely withered))	1 (Herbicidal ratio of 5% or more and less than 20%)	2 (Herbicidal ratio of 20% or more and less than 40%)	3 (Herbicidal ratio of 40% or more and less than 70%)	3 (Herbicidal ratio of 40% or more and less than 70%)
COc1cccc(Nc2nnc3c(C(=O)Nc4nnc(C)o4)ccc(C(F)(F)F)n23)n1 [1-102]	2 (Herbicidal ratio of 20% or more and less than 40%)	5 (Herbicidal ratio of 90% or more (almost completely withered))	4 (Herbicidal ratio of 70% or more and less than 90%)	4 (Herbicidal ratio of 70% or more and less than 90%)	2 (Herbicidal ratio of 20% or more and less than 40%)	3 (Herbicidal ratio of 40% or more and less than 70%)	2 (Herbicidal ratio of 20% or more and less than 40%)	2 (Herbicidal ratio of 20% or more and less than 40%)
CSCCc1nnc2c(C(=O)Nc3nnc(C)o3)ccc(C(F)(F)F)n12 [1-083]	0 (Herbicidal ratio of 5% or less (almost no effect))	5 (Herbicidal ratio of 90% or more (almost completely withered))	5 (Herbicidal ratio of 90% or more (almost completely withered))	5 (Herbicidal ratio of 90% or more (almost completely withered))	2 (Herbicidal ratio of 20% or more and less than 40%)	2 (Herbicidal ratio of 20% or more and less than 40%)	3 (Herbicidal ratio of 40% or more and less than 70%)	3 (Herbicidal ratio of 40% or more and less than 70%)
